Reference: US8871793B2, “Metaxalone cocrystals” (Nuformix Limited, priority 2009, dated 2014)
Like-named read-outs stand apart in the source and are kept apart here.

How the values were obtained:
[1] = presence of food at the time of drug administration compared to fasted conditions; cited from earlier work
[2] = cited from earlier work
[3] = Pharmacokinetic study, oral capsule administration under fasted conditions in beagle dogs; type: in vivo; settings: mean, male beagle dogs, equivalent metaxalone dosage of 21 mg/kg; for Cmax: plasma metaxalone by LC-MS/MS; for AUC / Tmax: plasma; for AUC: linear trapezoidal rule
Procedure: The study was designed to compare the pharmacokinetic profiles of the 1:0.5 metaxalone fumaric acid (prepared as described in Example 2.7) and 1:0.5 metaxalone succinic acid cocrystals (prepared as described in Example 4.7) with that of the crystalline metaxalone following oral administration under fasted conditions at 21 mg/kg dose level in beagle dogs. A crossover study was carried out using 5 male beagle dogs with a washout period of 5 days between each treatment. Prior to dosing, the dogs were fasted overnight, weighed and then this weight was used to load capsules with each test compound at an equivalent metaxalone dosage of 21 mg/kg. The capsules were orally administered to the dogs followed by about 10 mL of water. Food was provided 4 hours post-dose to all animals.
Blood samples were collected at pre-dose, 10, 20 and 30 minutes, and 1, 2, 3, 4, 6, 8, 12 and 24 hour post-dose (12 time points) following oral dose administration. Approximately 0.8 ml of whole blood was withdrawn from the cephalic vein and placed in labelled tubes containing K2 EDTA as anticoagulant ([…] of 200 mM K2 EDTA solution per mL of blood). Plasma was separated by centrifuging the whole blood at about 2500 g for 10 minutes at 4° C. Separated plasma was stored below −70° C. until analysis.
A fit for purpose LC-MS/MS method was used for the determination of the metaxalone concentrations in the plasma samples. Pharmacokinetic parameters from individual samples were calculated using the non-compartmental analysis tool of the WinNonlin® software (version 5.2). The area under the plasma concentration curve (AUC) was calculated using the linear trapezoidal rule. Peak plasma concentration (Cmax) and the time taken to reach the peak plasma concentration (Tmax) were the observed values.

Row | Cmax ([3]; dog, read-out: Cmax) [ng/mL] | AUC ([3]; dog, read-out: AUC) [ng·h/mL] | Tmax ([3]; dog, read-out: Tmax) [h] | Tmax [3] [h] | Cmax [3] [ng/mL] | AUC [3] [ng·h/mL] | Structure (SMILES) | Increase of AUC(inf) by food [1] [%] | Increase of AUC(last) by food [1] [%] | Increase of C(max) by food [1] [%] | Solubility in 96% ethanol ([2]; 96% ethanol) | Solubility in chloroform ([2]; chloroform) | Solubility in methanol ([2]; methanol) | Solubility in water ([2]; water)
1 | 1910 | 2380 | 0.9 | – | – | – | Cc1cc(C)cc(OCC2CNC(=O)O2)c1 (stereo not shown) [Metaxalone, 5-[(3,5-dimethylphenoxy)methyl]-2-oxazolidinone] | 115.4 | 123.5 | 177.5 | soluble | freely soluble | soluble | practically insoluble
2 | – | – | – | 1.8 | 2629.8 | 4134.85 | Cc1cc(C)cc(OCC2CNC(=O)O2)c1.Cc1cc(C)cc(OCC2CNC(=O)O2)c1.O=C(O)CCC(=O)O (stereo not shown) [1:0.5 Metaxalone Succinic Acid Cocrystal] | – | – | – | – | – | – | –
3 | – | – | – | 1.1 | 3635.39 | 5202.44 | Cc1cc(C)cc(OCC2CNC(=O)O2)c1.Cc1cc(C)cc(OCC2CNC(=O)O2)c1.O=C(O)C=CC(=O)O (stereo not shown) [1:0.5 Metaxalone Fumaric Acid Cocrystal] | – | – | – | – | – | – | –
